Data from ChEMBL document CHEMBL4138123, “Design, synthesis and biological evaluation of novel pyrazolochalcones as potential modulators of PI3K/Akt/mTOR pathway and inducers of apoptosis in breast cancer cells” (Eur J Med Chem, 2017).

How the values were obtained:
Format in all cases: functional
NCI-H226 = experiment: Cytotoxicity against human NCI-H226 cells assessed as growth inhibition after 48 hrs by sulforhodamine B assay; details: NCI-H226, 48 h
786-0 = experiment: Cytotoxicity against human 786-0 cells assessed as cell growth at 10 uM after 48 hrs by sulforhodamine B assay relative to control; details: 786-0, 48 h, read-out: Activity
NCI/ADR-RES [1] = experiment: Cytotoxicity against human NCI/ADR-RES cells assessed as cell growth at 0.1 uM after 48 hrs by sulforhodamine B assay relative to control; details: read-out: Activity
Hs-578T [2] = experiment: Cytotoxicity against human Hs 578T cells assessed as cell growth at 100 uM after 48 hrs by sulforhodamine B assay relative to control; details: read-out: Activity
HCT-15 [3] = experiment: Cytotoxicity against human HCT15 cells assessed as cell growth at 0.01 uM after 48 hrs by sulforhodamine B assay relative to control; details: HCT-15, 48 h, read-out: Activity
SK-MEL-28 = experiment: Cytotoxicity against human SK-MEL-28 cells assessed as cell growth at 10 uM after 48 hrs by sulforhodamine B assay relative to control; details: SK-MEL-28, 48 h, read-out: Activity
NCI-H23 = experiment: Cytotoxicity against human NCI-H23 cells assessed as cell growth at 0.01 uM after 48 hrs by sulforhodamine B assay relative to control; details: NCI-H23, 48 h, read-out: Activity
CCRF-CEM = experiment: Cytotoxicity against human CCRF-CEM cells assessed as growth inhibition after 48 hrs by sulforhodamine B assay
DU-145 [4] = experiment: Cytotoxicity against human DU145 cells assessed as cell growth at 1 uM after 48 hrs by sulforhodamine B assay relative to control; details: DU-145, 48 h, read-out: Activity
UACC-62 = experiment: Cytotoxicity against human UACC62 cells assessed as cell growth at 1 uM after 48 hrs by sulforhodamine B assay relative to control; details: UACC-62, 48 h, read-out: Activity
Hs-578T [5] = experiment: Cytotoxicity against human Hs 578T cells assessed as cell growth at 0.1 uM after 48 hrs by sulforhodamine B assay relative to control; details: read-out: Activity
SF-268 = experiment: Cytotoxicity against human SF268 cells assessed as growth inhibition after 48 hrs by sulforhodamine B assay; details: SF-268, 48 h; for CC50: read-out: LC50 (the source's name)
HOP-62 = experiment: Cytotoxicity against human HOP62 cells assessed as cell growth at 1 uM after 48 hrs by sulforhodamine B assay relative to control; details: HOP-62, 48 h, read-out: Activity
SW-620 = experiment: Cytotoxicity against human SW620 cells assessed as growth inhibition after 48 hrs by sulforhodamine B assay; details: SW-620, 48 h
MCF7 = experiment: Cytotoxicity against human MCF7 cells assessed as cell growth at 1 uM after 48 hrs by sulforhodamine B assay relative to control; details: MCF7, 48 h, read-out: Activity
KM12 = experiment: Cytotoxicity against human KM12 cells assessed as cell growth at 10 uM after 48 hrs by sulforhodamine B assay relative to control; details: KM12, 48 h, read-out: Activity
OVCAR-4 = experiment: Cytotoxicity against human OVCAR4 cells assessed as growth inhibition after 48 hrs by sulforhodamine B assay; details: OVCAR-4, 48 h
HCT-116 [6] = experiment: Cytotoxicity against human HCT116 cells assessed as cell growth at 0.1 uM after 48 hrs by sulforhodamine B assay relative to control; details: HCT-116, 48 h, read-out: Activity
A498 = experiment: Cytotoxicity against human A498 cells assessed as cell growth at 1 uM after 48 hrs by sulforhodamine B assay relative to control; details: A498, 48 h, read-out: Activity
TK-10 [7] = experiment: Cytotoxicity against human TK10 cells assessed as growth inhibition after 48 hrs by sulforhodamine B assay; details: TK-10, 48 h
DU-145 [8] = experiment: Cytotoxicity against human DU145 cells assessed as cell growth at 10 uM after 48 hrs by sulforhodamine B assay relative to control; details: DU-145, 48 h, read-out: Activity
TK-10 [9] = experiment: Cytotoxicity against human TK10 cells assessed as cell growth at 1 uM after 48 hrs by sulforhodamine B assay relative to control; details: TK-10, 48 h, read-out: Activity
HCT-15 [10] = experiment: Cytotoxicity against human HCT15 cells assessed as growth inhibition after 48 hrs by sulforhodamine B assay; details: HCT-15, 48 h
DU-145 [11] = experiment: Cytotoxicity against human DU145 cells assessed as growth inhibition after 48 hrs by sulforhodamine B assay; details: DU-145, 48 h; for CC50: read-out: LC50 (the source's name)
A549 = experiment: Cytotoxicity against human A549/ATCC cells assessed as growth inhibition after 48 hrs by sulforhodamine B assay; details: A549, 48 h
HCT-116 [12] = experiment: Cytotoxicity against human HCT116 cells assessed as growth inhibition after 48 hrs by sulforhodamine B assay; details: HCT-116, 48 h
SNB-19 [13] = experiment: Cytotoxicity against human SNB19 cells assessed as cell growth at 0.1 uM after 48 hrs by sulforhodamine B assay relative to control; details: SNB-19, 48 h, read-out: Activity
NCI/ADR-RES [14] = experiment: Cytotoxicity against human NCI/ADR-RES cells assessed as cell growth at 100 uM after 48 hrs by sulforhodamine B assay relative to control; details: read-out: Activity
NCI-H460 = experiment: Cytotoxicity against human NCI-H460 cells assessed as cell growth at 1 uM after 48 hrs by sulforhodamine B assay relative to control; details: NCI-H460, 48 h, read-out: Activity
MDA-MB-468 = experiment: Cytotoxicity against human MDA-MB-468 cells assessed as cell growth at 100 uM after 48 hrs by sulforhodamine B assay relative to control; details: MDA-MB-468, 48 h, read-out: Activity
SK-OV-3 = experiment: Cytotoxicity against human SKOV3 cells assessed as cell growth at 0.1 uM after 48 hrs by sulforhodamine B assay relative to control; details: SK-OV-3, 48 h, read-out: Activity
NCI-H522 = experiment: Cytotoxicity against human NCI-H522 cells assessed as growth inhibition after 48 hrs by sulforhodamine B assay; details: NCI-H522, 48 h
SNB-19 [15] = experiment: Cytotoxicity against human SNB19 cells assessed as cell growth at 100 uM after 48 hrs by sulforhodamine B assay relative to control; details: SNB-19, 48 h, read-out: Activity
MDA-MB-231 = experiment: Cytotoxicity against human MDA-MB-231 cells assessed as cell growth at 0.1 uM after 48 hrs by sulforhodamine B assay relative to control; details: MDA-MB-231, 48 h, read-out: Activity
SR = experiment: Cytotoxicity against human SR cells assessed as cell growth at 10 uM after 48 hrs by sulforhodamine B assay relative to control; details: read-out: Activity

COc1cc(-c2cc(/C=C/C(=O)c3ccc(N)cc3)[nH]n2)cc(OC)c1OC
GI50 (NCI-H226): 1.71 µM | LC50 (concentration killing 50% of cells) (NCI-H226): 7.18 µM | TGI (NCI-H226): 3.51 µM | growth at 10 µM (786-0): -19% | growth at 0.1 µM (NCI/ADR-RES [1]): 110% | growth at 100 µM (Hs-578T [2]): 2% | growth at 0.01 µM (HCT-15 [3]): 92% | growth at 10 µM (SK-MEL-28): -57% | growth at 0.01 µM (NCI-H23): 102% | GI50 (CCRF-CEM): 0.55 µM | LC50 (concentration killing 50% of cells) (CCRF-CEM): > 100 µM | TGI (CCRF-CEM): 4.17 µM | growth at 1 µM (DU-145 [4]): 78% | growth at 1 µM (UACC-62): 86% | growth at 0.1 µM (Hs-578T [5]): 88% | GI50 (SF-268): 1.69 µM | TGI (SF-268): 3.93 µM | CC50 (SF-268): 9.16 µM | growth at 1 µM (HOP-62): 86% | GI50 (SW-620): 2.05 µM | LC50 (lethal concentration, 50% net cell kill) (SW-620): > 100 µM | TGI (SW-620): 6.37 µM | growth at 1 µM (MCF7): 66% | growth at 10 µM (KM12): -67% | GI50 (OVCAR-4): 1.4 µM | LC50 (OVCAR-4): 23.7 µM | TGI (OVCAR-4): 5.44 µM | growth at 0.1 µM (HCT-116 [6]): 97% | growth at 1 µM (A498): 76% | GI50 (TK-10 [7]): 4.84 µM | LC50 (TK-10 [7]): 51.6 µM | TGI (TK-10 [7]): 17.5 µM | growth at 10 µM (DU-145 [8]): -50% | growth at 1 µM (TK-10 [9]): 102% | GI50 (HCT-15 [10]): 1.37 µM | LC50 (HCT-15 [10]): > 100 µM | TGI (HCT-15 [10]): 6.76 µM | GI50 (DU-145 [11]): 1.65 µM | TGI (DU-145 [11]): 4.05 µM | CC50 (DU-145 [11]): 9.95 µM | GI50 (A549): 2.08 µM | LC50 (concentration giving 50% net cell kill) (A549): 86.5 µM | TGI (A549): 7.02 µM | GI50 (HCT-116 [12]): 1.1 µM | LC50 (HCT-116 [12]): 6.19 µM | TGI (HCT-116 [12]): 2.61 µM | growth at 0.1 µM (SNB-19 [13]): 94% | growth at 100 µM (NCI/ADR-RES [14]): -3% | growth at 1 µM (NCI-H460): 78% | growth at 100 µM (MDA-MB-468): -65% | growth at 0.1 µM (SK-OV-3): 98% | GI50 (NCI-H522): 1.62 µM | LC50 (NCI-H522): 9.81 µM | TGI (NCI-H522): 3.99 µM | growth at 100 µM (SNB-19 [15]): -94% | growth at 0.1 µM (MDA-MB-231): 91% | growth at 10 µM (SR): -18%

COc1cc2c(cc1OC)C(=O)/C(=C/c1cc(-c3ccc4c(c3)OCO4)n[nH]1)C2
GI50 (NCI-H226): 1.55 µM | TGI (NCI-H226): 3.32 µM | growth at 10 µM (786-0): -98% | growth at 0.1 µM (NCI/ADR-RES [1]): 100% | growth at 100 µM (Hs-578T [2]): -15% | growth at 0.01 µM (HCT-15 [3]): 95% | growth at 10 µM (SK-MEL-28): -92% | growth at 0.01 µM (NCI-H23): 93% | GI50 (CCRF-CEM): 1.14 µM | LC50 (concentration killing 50% of cells) (CCRF-CEM): > 100 µM | TGI (CCRF-CEM): 3.61 µM | growth at 1 µM (DU-145 [4]): 77% | growth at 1 µM (UACC-62): 89% | growth at 0.1 µM (Hs-578T [5]): 99% | GI50 (SF-268): 1.63 µM | TGI (SF-268): 3.37 µM | CC50 (SF-268): 6.99 µM | growth at 1 µM (HOP-62): 82% | GI50 (SW-620): 1.35 µM | LC50 (lethal concentration, 50% net cell kill) (SW-620): 8.96 µM | TGI (SW-620): 3.47 µM | growth at 1 µM (MCF7): 15% | growth at 10 µM (KM12): -87% | GI50 (OVCAR-4): 1.11 µM | LC50 (OVCAR-4): 5 µM | TGI (OVCAR-4): 2.36 µM | growth at 0.1 µM (HCT-116 [6]): 105% | growth at 1 µM (A498): 69% | GI50 (TK-10 [7]): 1.89 µM | LC50 (TK-10 [7]): 5.96 µM | TGI (TK-10 [7]): 3.36 µM | growth at 10 µM (DU-145 [8]): -92% | growth at 1 µM (TK-10 [9]): 106% | GI50 (HCT-15 [10]): 1.12 µM | LC50 (HCT-15 [10]): 7.07 µM | TGI (HCT-15 [10]): 2.81 µM | GI50 (DU-145 [11]): 1.45 µM | TGI (DU-145 [11]): 2.86 µM | CC50 (DU-145 [11]): 5.64 µM | GI50 (A549): 1.96 µM | LC50 (concentration giving 50% net cell kill) (A549): 37.1 µM | TGI (A549): 5.45 µM | GI50 (HCT-116 [12]): 1.03 µM | LC50 (HCT-116 [12]): 6.31 µM | TGI (HCT-116 [12]): 2.54 µM | growth at 0.1 µM (SNB-19 [13]): 98% | growth at 100 µM (NCI/ADR-RES [14]): -40% | growth at 1 µM (NCI-H460): 82% | growth at 100 µM (MDA-MB-468): -86% | growth at 0.1 µM (SK-OV-3): 105% | GI50 (NCI-H522): 0.25 µM | LC50 (NCI-H522): 3.92 µM | TGI (NCI-H522): 0.871 µM | growth at 100 µM (SNB-19 [15]): -94% | growth at 0.1 µM (MDA-MB-231): 99% | growth at 10 µM (SR): -24%
